Data set [1] deals with mouse carrageenan paw oedema. Put plainly: Carrageenan oedema test. It is filed as in vivo, mice. The method, then: Anti-inflammatory activity was tested by means of the carrageenan oedema test. The mice were divided into groups of six. The initial volumes of the leg of all the animals were measured using a plethysmometer. The oedema is induced in the leg by means of sub-plantar injection of 50 μl of saline solution containing 1% of carrageenan. The volume of the leg was measured at different time intervals. Said experimental model consists of two phases: a first, acute, phase lasting 6 hours and a second, chronic, phase, up to 72 hours.
The anti-inflammatory activity of the physical mixture of ketorolac and galactose was evaluated with the carrageenan induced mice hind paw edema assay, as described for ketogal. […]
The carrageenan induced mice hind paw oedema assay described by D'Agostino et al. (2007) was used to evaluate the acute anti-inflammatory activity of the conjugate. Mice were divided into control and test groups of six animals each. Initial paw volumes of all animals were measured using a plethysmometer apparatus (Ugo Basile, Milan, Italy) before treatment. Paw oedema was induced by a subplantar injection of 50 μL of saline containing 1% λ-carrageenan into the right hind paw. […] free acid and ketogal were orally administrated 1 h before carrageenan challenge. Paw volume was measured at different time intervals by plethysmometer. The increase in paw volume was evaluated as the difference between the paw volume measured at each time point and the basal paw volume measured immediately before carrageenan injection.
On the technique in general: The carrageenan paw model is a standard test of acute inflammation.

The test system of data set [2] is writhing induced by acetic acid. Put plainly: Writhing test induced by acetic acid. It counts as in vivo, mice. The method, then:
The analgesic activity was studied using the “writhing test” using acetic acid and using magnesium sulphate. To the mice there was administered by intraperitoneal route 1 mL of solution at 1% of acetic acid, and the number of writhing events was evaluated for 20 min, after 5 min from administration of the solution of acetic acid. Writhing is defined as a contraction of the abdominal muscles accompanied by elongation of the body and of the rear legs. Ketorolac and Ketogal were administered by oral route 60 min prior to administration of the solution of acetic acid. The analgesic effect is expressed in number of writhing events as compared to the control.
(In general: Writhing tests count abdominal constrictions after an irritant is injected.)

For data set [3], the system named is male Swiss mice. Put plainly: Ulcerogenicity studies, ketorolac and Ketogal (gastric lesions). It counts as in vivo. To be noted: oral, Ketogal 16.3 mg/kg. The method, then:
The gastric lesions were evaluated in male Swiss mice. To the fasted animals (16-18 h) were administered, by oral route, ketorolac (10 mg/kg), Ketogal (16.3 mg/kg), or the vehicle. After 4 hours, the mice were sacrificed and the stomach removed, cut along the major curvature, washed with physiological solution, and the mucous was examined for evaluation of the presence of petechias and/or gastric lesions. A “score” of 1 was assigned to the petechias, and a “score” based on the diameter (a “score” of 5 for lesions of a diameter of less than 1 mm; a “score” of 10 for lesions with a diameter of more than 1 mm) was, instead, assigned to the lesions.

The next data set has as its system lipid peroxidation. Nature of the data set: Malonyldialdehyde assay in liver lysates. It is filed as in vivo, mice. To be noted: ketogal 16.3 mg/Kg oral for 3, 5 and 7 days. The method, then: (§1) Animals were sacrificed and then liver, stomach and kidney were collected in glass tubes and analysed histologically and biochemically.
(§2) Liver samples were fixed in 10% buffered formalin and embedded in paraffin, sliced, and stained with hematoxylin & eosin (H&E) for assessment of liver pathology. […] To confirm histological data, western blot analysis for TNF-alpha, IL-6 and malonyldialdehyde assay were then performed in liver lysates.

Data set [4] has as its system male Swiss mice. Put plainly: Chronic and sub-chronic experiments: liver, kidney and stomach examination. It is filed as in vivo. The method, then:
as §1, §2

Where [5] appears, read: Ketogal 0.163 mg/kg versus ketorolac 0.1 mg/kg, oral and subcutaneous administration.

Entries after “also recorded” stand apart in the source; their conditions may differ.

Consider `O=C(c1ccccc1)c1ccc2n1CC[C@@H]2C(=O)OCC1O[C@H](O)C(O)C(O)[C@H]1O` (mixture of isomers) [Ketogal, ketorolac-D-galactos-6′-yl ester], for which the “Anti-inflammatory activity compared with ketorolac” value in data set [1] (setting [5]) is “better analgesic and anti-inflammatory activity than ketorolac”. Further, in data set [1] (Ketogal 0.163-16.3 mg/kg oral, 1 h prior to carrageenan), the “Oedema of the leg” value is “considerably reduces the oedema of the leg in a time-dependent and dose-dependent way”. Besides, the “Formation of oedema, first phase” value in data set [1] (Ketogal 0.163-16.3 mg/kg oral, first, acute phase (6 hours)) is “all the doses tested inhibited formation of oedema”. The “Effect on oedema, second phase” value in data set [1] (Ketogal oral, second, chronic phase up to 72 hours) is listed as “continued also in the second phase”. Moreover, the “Analgesic activity compared with ketorolac” value in data set [2] (setting [5]) is “better analgesic and anti-inflammatory activity than ketorolac”. For the same molecule, in data set [2] (oral, 60 min prior to acetic acid, ketorolac 0.01-10 mg/kg, Ketogal 0.0163-16.3 mg/kg), the “Analgesic effect (number of writhing events compared to control)” value is “dose-dependent analgesic effect of higher than 0.163 mg/kg”. In addition, the “Gastrolesive properties (in words)” value in the data set with male Swiss mice [3] (equimolar to ketorolac 10 mg/kg) was “does not cause ulcers; also recorded: only a slight irritation of the gastric mucosa, with an almost total absence of ulcers”. In the data set on male Swiss mice [3] (ketorolac 10.0 mg/kg, after 4 hours, score 1 petechias, 5 or 10 lesions), the Degree of ulcerogenicity is 1. Besides, the Number of ulcers in the data set with male Swiss mice [3] (ketorolac 10.0 mg/kg, fasted mice, after 4 hours) stood at 1 ± 0.4. Further, the “Lipid peroxidation level in liver (malonyldialdehyde)” value with lipid peroxidation is “no different compared to control mice”. Also, the “Liver histology (H&E)” value in the data set with male Swiss mice [4] (ketogal 16.3 mg/Kg oral for 3, 5 and 7 days) is “normal liver histology”. For the same molecule, the “Hepatic inflammation and/or damage (biochemical analysis)” value in the data set on male Swiss mice [4] (ketogal 16.3 mg/Kg oral for 3, 5 and 7 days, liver lysates) is on record as “no hepatic inflammation and/or damage”. Moreover, the Kidney histology result in the data set with male Swiss mice [4] (ketorolac 10 mg/Kg, ketogal 16.3 mg/Kg, oral, after 3, 5 and 7 days) is listed as “normal kidney histology”. In addition, the “Stomach samples, ulcerogenicity” value in the data set with male Swiss mice [4] (ketorolac 10 mg/Kg, ketogal 16.3 mg/Kg, oral, for 3 days) was “undamaged and similar to control”.
